Reference: ChEMBL document CHEMBL1201862, “PubChem BioAssay data set” (2004)
Calls of active or inactive are those of the source.

Columns and labels:
[1] = THP-1 cell cytotoxicity, dose response, cytotoxicity control, set 3 (AID 504852); type: functional; details: Mycobacterium tuberculosis
[2] = Vero cell cytotoxicity, cytotoxicity control for M. tuberculosis inhibitor project, purified and synthesized samples, set 3 (AID 504684); type: functional
[3] = THP-1 cell cytotoxicity, cytotoxicity control, set 4 (AID 504911); type: functional; details: Mycobacterium tuberculosis
[4] = biological target: DNA dC->dU-editing enzyme APOBEC-3G (Homo sapiens, UniProt Q9HC16); assay: APOBEC3G deaminase inhibitors, SAR follow-up, biochemical, fluorescence, single-stranded DNA substrate (AID 602136); type: functional; details: read-out: IC50_Mean
[5] = biological target: DNA dC->dU-editing enzyme APOBEC-3A (Homo sapiens, UniProt P31941); assay: SAR analysis of small molecule inhibitors of APOBEC3A DNA Deaminase via a fluorescence-based single-stranded DNA deaminase assay.; type: functional; details: read-out: IC50_Mean
Candida albicans [6] = assay: growth inhibition of resistant C. albicans, dose response, CaCi-8 strain, fluconazole, dry powder, set 4 (AID 488950); type: functional, organism-based
NIH3T3 = assay: cytotoxicity in NIH-3T3 fibroblasts, dose response, cytotoxicity control for antifungal drug resistance project, cell-based, Alamar Blue, fluconazole, dry powder (AID 488809); type: functional; details: Mus musculus
Candida albicans [7] = assay: single-agent growth inhibition of C. albicans, dose response, counter-screen for antifungal drug resistance project, C. albicans CaCi-2, dry powder (AID 488802); type: functional, organism-based
Candida albicans [8] = assay: fluconazole resistance reversal in C. albicans, dose response, CaCi-2 strain, Alamar Blue, dry powder, set 4 (AID 488943); type: functional, organism-based
Candida albicans [9] = assay: growth inhibition of resistant C. albicans, dose response, CaCi-8, fluconazole, Alamar Blue, dry powder (AID 488807); type: functional, organism-based
[10] = biological target: T1, Sentrin-specific protease 8 (Homo sapiens, UniProt Q96LD8); assay: SENP8 protease inhibitors, SAR follow-up, biochemical, luminescence, set 2 (AID 588601); type: functional
T1 sequence (Q96LD8 whole entry): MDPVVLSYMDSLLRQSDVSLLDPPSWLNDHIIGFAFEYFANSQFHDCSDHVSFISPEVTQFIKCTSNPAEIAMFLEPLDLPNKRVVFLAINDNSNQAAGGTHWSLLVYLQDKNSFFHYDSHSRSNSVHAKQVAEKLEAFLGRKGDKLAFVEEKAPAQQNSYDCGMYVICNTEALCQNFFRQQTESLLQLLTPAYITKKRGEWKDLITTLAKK

[11] = biological target: T2, Sentrin-specific protease 6 (Homo sapiens, UniProt Q9GZR1); assay: SAR Analysis of small molecule inhibitors of Sentrin-specific protease 6 (SENP6) using a Luminescent assay. [Related pubchem assays (depositor defined):AID2582, AID2599]; type: functional
T2 sequence (Q9GZR1 whole entry): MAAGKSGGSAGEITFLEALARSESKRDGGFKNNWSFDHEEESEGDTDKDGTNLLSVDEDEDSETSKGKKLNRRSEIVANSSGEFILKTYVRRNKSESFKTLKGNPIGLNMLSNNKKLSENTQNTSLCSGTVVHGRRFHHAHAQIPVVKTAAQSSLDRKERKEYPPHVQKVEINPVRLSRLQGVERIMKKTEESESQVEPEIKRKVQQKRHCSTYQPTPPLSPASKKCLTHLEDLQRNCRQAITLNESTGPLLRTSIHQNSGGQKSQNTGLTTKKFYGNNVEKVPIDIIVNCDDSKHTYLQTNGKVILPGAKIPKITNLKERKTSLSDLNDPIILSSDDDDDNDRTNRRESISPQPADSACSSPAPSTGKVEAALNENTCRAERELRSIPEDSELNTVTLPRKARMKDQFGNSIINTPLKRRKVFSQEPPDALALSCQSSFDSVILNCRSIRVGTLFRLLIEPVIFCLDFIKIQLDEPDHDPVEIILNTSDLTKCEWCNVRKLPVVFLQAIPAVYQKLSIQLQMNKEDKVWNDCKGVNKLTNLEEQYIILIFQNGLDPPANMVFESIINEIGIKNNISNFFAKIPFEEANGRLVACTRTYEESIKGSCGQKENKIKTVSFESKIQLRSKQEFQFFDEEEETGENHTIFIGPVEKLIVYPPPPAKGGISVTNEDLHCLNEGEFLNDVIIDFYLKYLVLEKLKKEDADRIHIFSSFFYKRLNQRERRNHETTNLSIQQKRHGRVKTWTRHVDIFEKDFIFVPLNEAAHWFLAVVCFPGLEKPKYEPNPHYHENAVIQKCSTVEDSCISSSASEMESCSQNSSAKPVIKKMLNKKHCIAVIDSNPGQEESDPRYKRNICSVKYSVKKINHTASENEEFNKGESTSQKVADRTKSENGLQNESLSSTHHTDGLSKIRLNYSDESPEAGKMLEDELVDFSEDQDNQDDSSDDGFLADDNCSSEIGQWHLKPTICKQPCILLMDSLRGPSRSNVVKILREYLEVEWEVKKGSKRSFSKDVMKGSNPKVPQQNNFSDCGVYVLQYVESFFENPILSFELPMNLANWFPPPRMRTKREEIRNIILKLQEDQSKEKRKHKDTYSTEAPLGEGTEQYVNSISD

[12] = biological target: T3, Sentrin-specific protease 7 (Homo sapiens, UniProt Q9BQF6); assay: SENP7 protease inhibitors, SAR follow-up, biochemical, luminescence, set 2 (AID 588600); type: functional
T3 sequence (Q9BQF6 whole entry): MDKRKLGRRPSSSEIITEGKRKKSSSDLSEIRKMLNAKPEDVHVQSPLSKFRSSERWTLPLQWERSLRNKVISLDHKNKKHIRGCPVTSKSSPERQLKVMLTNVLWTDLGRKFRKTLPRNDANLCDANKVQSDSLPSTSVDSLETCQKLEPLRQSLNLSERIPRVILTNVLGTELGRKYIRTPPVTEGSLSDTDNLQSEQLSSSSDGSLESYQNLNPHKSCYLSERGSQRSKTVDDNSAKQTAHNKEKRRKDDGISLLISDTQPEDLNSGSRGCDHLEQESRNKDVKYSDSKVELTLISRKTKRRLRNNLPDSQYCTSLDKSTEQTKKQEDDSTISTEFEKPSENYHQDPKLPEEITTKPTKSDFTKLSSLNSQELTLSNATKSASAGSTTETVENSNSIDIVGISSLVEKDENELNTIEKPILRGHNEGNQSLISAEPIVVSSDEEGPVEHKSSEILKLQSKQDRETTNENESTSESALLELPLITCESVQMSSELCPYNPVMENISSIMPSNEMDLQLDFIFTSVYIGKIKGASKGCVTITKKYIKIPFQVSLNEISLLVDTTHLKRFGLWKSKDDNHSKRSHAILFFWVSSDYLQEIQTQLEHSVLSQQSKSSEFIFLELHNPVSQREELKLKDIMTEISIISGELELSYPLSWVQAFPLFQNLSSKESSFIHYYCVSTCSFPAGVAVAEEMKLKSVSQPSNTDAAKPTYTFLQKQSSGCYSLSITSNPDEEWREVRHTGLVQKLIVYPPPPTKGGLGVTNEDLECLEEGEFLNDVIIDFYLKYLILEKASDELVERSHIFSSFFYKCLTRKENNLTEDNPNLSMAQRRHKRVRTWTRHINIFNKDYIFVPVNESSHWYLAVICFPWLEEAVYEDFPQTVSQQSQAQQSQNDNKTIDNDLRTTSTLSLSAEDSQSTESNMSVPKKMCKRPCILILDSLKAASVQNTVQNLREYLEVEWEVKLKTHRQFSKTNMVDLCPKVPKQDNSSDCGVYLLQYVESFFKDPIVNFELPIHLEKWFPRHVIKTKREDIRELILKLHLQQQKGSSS

[13] = biological target: T2, Sentrin-specific protease 6; assay: SENP6 protease inhibitors, SAR follow-up, biochemical, luminescence, set 2 (AID 588598); type: functional
[14] = biological target: T1, Sentrin-specific protease 8; assay: SENP8 protease inhibitors, SAR follow-up, biochemical, luminescence (AID 504501); type: functional
[15] = biological target: T3, Sentrin-specific protease 7; assay: SENP7 protease inhibitors, SAR follow-up, biochemical, luminescence (AID 504497); type: functional
Caspase-3 [16] = biological target: T4, Caspase-3 (Homo sapiens, UniProt P42574); assay: caspase-3 inhibitors as off-family protease, SAR follow-up, selectivity assay for SENP protease inhibitor project, biochemical, luminescence, set 2 (AID 588599); type: functional
T4 sequence (P42574 whole entry): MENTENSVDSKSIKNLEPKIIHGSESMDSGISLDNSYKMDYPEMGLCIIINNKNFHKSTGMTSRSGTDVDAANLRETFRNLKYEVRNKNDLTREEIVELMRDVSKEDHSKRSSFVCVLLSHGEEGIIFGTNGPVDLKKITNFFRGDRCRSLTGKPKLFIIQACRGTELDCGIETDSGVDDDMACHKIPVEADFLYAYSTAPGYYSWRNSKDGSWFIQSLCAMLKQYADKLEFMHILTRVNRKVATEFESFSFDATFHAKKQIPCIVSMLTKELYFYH

Caspase-3 [17] = biological target: T4, Caspase-3; assay: SAR Analysis of small molecule inhibitors of Sentrin-specific proteases (SENPs) using a Caspase-3 Selectivity assay. [Related pubchem assays (depositor defined):AID2540, AID2599, AID434973, AID489001]; type: functional
Streptokinase A = biological target: T5, Streptokinase A (Streptococcus pyogenes serotype M1, UniProt P10520); assay: S. pyogenes streptokinase expression inhibitors, potency, dose response, plasminogen activation absorbance, OD405 (AID 1914); type: functional, Streptococcus pyogenes M1 GAS;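 further: secreted streptokinase activity via plasminogen activation per viability signal from cell pellet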
T5 sequence (P10520 whole entry): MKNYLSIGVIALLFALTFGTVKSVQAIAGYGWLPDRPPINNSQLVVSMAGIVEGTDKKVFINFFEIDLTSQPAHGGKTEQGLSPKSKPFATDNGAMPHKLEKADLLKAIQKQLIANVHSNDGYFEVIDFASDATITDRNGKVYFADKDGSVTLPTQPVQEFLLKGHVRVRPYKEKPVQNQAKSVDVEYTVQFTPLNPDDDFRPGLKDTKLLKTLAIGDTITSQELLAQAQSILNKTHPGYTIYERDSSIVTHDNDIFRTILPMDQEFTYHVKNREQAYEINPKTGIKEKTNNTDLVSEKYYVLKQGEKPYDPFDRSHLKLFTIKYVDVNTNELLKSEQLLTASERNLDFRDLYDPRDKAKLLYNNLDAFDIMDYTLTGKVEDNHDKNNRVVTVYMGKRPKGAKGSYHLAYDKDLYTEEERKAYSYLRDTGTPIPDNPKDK

[18] = biological target: T6, Corticotropin-releasing factor receptor 2/Corticotropin-releasing factor-binding protein (Homo sapiens, UniProt P24387+Q13324); assay: activators of CRF receptor 2 with binding protein – uHTS hits, confirmation (AID 602473); type: functional; details: read-out: EC50_Mean
T6 sequence (Q13324 whole entry): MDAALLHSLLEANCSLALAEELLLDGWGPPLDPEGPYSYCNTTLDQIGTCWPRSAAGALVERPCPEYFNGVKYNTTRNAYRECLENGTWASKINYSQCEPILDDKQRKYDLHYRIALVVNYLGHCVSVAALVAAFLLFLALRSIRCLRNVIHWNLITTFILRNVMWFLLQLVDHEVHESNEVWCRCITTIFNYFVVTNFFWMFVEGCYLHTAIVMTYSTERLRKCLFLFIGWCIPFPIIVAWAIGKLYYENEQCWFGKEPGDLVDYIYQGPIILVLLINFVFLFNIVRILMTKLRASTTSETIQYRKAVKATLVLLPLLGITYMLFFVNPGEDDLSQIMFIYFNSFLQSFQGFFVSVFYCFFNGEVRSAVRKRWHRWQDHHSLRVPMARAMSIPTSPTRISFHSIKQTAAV
T6 sequence (P24387 whole entry): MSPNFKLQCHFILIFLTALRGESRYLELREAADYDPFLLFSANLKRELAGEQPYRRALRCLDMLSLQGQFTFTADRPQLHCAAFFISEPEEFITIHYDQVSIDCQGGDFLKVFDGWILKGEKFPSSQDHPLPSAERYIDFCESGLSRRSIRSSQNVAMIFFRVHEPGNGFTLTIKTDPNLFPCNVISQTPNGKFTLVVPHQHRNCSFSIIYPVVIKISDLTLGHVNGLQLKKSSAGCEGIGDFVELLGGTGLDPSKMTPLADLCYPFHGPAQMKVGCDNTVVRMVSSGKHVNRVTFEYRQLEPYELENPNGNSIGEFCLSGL

[19] = tested on: Streptococcus sp. 'group A'; assay: growth inhibition of control SK(-) GAS strain, dose response, counter-screen for streptokinase expression inhibitor project, luminescence, kanamycin, BacTiterGlo, confirmation (AID 1900); type: functional, organism-based
Streptococcus = assay: Group A Streptococcus viability loss, dose response, counter-screen for streptokinase expression inhibitor project, luminescence, BacTiterGlo (AID 1915); type: functional, organism-based;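 further: potency for reduction of bacterial viability or growth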
Phospholipase A2 = Phospholipase A2 (Homo sapiens, UniProt P04054); type: functional;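 further: confirmatory dose-response counterscreen on phospholipase A2, testing hits that came from an ultra-high-throughput screen for ATG4B inhibitors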
[20] = Luminescence Cell-Based Dose Retest to Confirm Inhibitors of Cancer Stem Cells. [Related pubchem assays (depositor defined):AID2717, AID2721]; type: functional; details: Homo sapiens
Cysteine protease ATG4B = Cysteine protease ATG4B (Homo sapiens, UniProt Q9Y4P1); type: functional;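 further: Fluorescence-based dose-response confirmation assay measuring inhibition of ATG4B activity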
Cysteine protease ATG4B, sequence (Q9Y4P1 whole entry): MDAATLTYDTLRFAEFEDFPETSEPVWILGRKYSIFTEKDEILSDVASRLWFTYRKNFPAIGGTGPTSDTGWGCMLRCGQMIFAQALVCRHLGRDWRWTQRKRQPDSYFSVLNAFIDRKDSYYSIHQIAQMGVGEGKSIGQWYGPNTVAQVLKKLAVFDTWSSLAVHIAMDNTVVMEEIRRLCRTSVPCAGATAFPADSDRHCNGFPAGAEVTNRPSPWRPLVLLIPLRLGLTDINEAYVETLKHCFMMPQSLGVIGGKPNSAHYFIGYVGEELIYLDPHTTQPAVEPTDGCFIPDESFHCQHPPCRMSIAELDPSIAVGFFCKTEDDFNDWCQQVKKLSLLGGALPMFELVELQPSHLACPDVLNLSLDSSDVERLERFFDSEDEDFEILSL

DNA dC->dU-editing enzyme APOBEC-3G, sequence (Q9HC16 whole entry): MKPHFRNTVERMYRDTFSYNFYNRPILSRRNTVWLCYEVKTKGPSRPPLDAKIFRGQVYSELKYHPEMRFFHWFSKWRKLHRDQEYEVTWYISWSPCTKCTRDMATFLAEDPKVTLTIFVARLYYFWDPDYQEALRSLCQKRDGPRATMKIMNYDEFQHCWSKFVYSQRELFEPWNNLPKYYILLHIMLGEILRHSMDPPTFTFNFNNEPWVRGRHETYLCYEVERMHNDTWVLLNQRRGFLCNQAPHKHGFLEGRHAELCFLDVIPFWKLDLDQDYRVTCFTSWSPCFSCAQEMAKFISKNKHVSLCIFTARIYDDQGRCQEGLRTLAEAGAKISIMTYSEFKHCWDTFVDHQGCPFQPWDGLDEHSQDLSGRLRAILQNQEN
DNA dC->dU-editing enzyme APOBEC-3A, sequence (P31941 whole entry): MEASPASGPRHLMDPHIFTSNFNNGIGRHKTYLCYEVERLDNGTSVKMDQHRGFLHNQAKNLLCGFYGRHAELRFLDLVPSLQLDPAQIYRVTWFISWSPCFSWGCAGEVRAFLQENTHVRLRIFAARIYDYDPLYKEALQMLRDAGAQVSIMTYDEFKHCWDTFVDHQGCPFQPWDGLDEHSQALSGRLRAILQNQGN
Phospholipase A2, sequence (P04054 whole entry): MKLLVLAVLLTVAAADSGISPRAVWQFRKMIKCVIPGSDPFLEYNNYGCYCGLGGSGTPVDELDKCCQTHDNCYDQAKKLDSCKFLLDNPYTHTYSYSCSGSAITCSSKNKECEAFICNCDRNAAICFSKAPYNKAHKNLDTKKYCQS

## Cc1[nH]c(SCC(=O)N(C)c2ccccc2)nc(=O)c1C
[1]
  CC50: > 100 µM (active)
[2]
  CC50: > 100 µM (active)
[3]
  CC50: > 100 µM (active)

## O=C(CSc1nnc2scc(-c3ccc(Cl)cc3)n12)N1CCOCC1
[4]
  IC50: 28 µM (inactive)
[5]
  IC50: > 99 µM (inactive)

## O=C(c1ccc(Cl)c(Cl)c1)N1CCN(c2ccnc3cc(Cl)ccc23)CC1
Candida albicans [6]
  AC50: 0.515 µM (active)
NIH3T3
  AC50: 43.6 µM (active)
Candida albicans [7]
  AC50: 45.2 µM (active)
Candida albicans [8]
  AC50: 0.726 µM (active)
Candida albicans [9]
  AC50: 1.14 µM (active)

## Oc1ccccc1-c1nc(/C=C/c2ccccc2)no1
[10]
  IC50: 2.54 µM (active)
[11]
  IC50: 8.4 µM (active)
[12]
  IC50: 2.71 µM (active)
[13]
  IC50: 2.12 µM (active)
[14]
  IC50: 71 µM (active)
[15]
  IC50: 2.8 µM (active)
Caspase-3 [16]
  IC50: 3.6 µM (active)
Caspase-3 [17]
  IC50: 6.9 µM (active)

## Cc1cc(C)cc(-n2c(C)cc(/C=C3\C(=N)N4N=C(CC(C)C)SC4=NC3=O)c2C)c1
Streptokinase A
  EC50: > 50 µM (not active)
[18]
  EC50: 6.77 µM (active)
[19]
  EC50: 4.57 µM (active)
Streptococcus
  EC50: 9.46 µM (active)
Phospholipase A2
  IC50: 2.3 µM (active)
[20]
  AC50: 2.82 µM (active)
Cysteine protease ATG4B
  IC50: 3.65 µM (active)
